In ChEMBL document CHEMBL4616701, “Design, Synthesis, and Pharmacological Evaluation of Second Generation EZH2 Inhibitors with Long Residence Time” (ACS Med Chem Lett, 2020):
The source made the active and inactive calls. The rule behind the calls is not given here.

Experiments:
[1] = target: T1, Histone-lysine N-methyltransferase EZH2 (Homo sapiens, UniProt Q15910); test: Inhibition of EZH2 in human HeLa cells assessed as inhibition of trimethylation of H3K27 after 72 hrs by AlphaLISA assay; assay type: cell-based
Target sequence in this assay (Q15910 whole entry): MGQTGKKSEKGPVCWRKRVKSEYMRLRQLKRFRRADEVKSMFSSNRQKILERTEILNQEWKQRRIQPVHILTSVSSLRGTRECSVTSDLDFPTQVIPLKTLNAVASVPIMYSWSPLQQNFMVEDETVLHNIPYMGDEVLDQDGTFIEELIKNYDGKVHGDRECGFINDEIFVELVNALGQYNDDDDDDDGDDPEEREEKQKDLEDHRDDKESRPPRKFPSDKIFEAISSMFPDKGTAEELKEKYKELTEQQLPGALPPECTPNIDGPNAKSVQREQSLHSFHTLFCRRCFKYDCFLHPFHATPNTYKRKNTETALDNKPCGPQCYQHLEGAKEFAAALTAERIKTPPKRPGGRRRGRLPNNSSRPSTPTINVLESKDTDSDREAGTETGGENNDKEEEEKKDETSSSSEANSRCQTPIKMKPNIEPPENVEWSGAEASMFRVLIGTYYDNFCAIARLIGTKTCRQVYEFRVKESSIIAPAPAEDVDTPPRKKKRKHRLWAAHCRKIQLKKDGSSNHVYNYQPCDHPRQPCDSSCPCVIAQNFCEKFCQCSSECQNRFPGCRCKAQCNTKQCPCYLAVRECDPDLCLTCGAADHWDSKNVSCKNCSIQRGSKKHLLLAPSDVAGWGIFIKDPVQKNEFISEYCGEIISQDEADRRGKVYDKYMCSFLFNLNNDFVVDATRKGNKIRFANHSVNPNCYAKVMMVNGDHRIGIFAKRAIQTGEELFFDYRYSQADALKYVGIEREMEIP

[2] = target: T1, Histone-lysine N-methyltransferase EZH2; test: Inhibition of N-terminal FLAG-tagged EZH2 in PRC2 complex (unknown origin) expressed in baculovirus infected Sf9 cells using H2N-RKQLATKAAR(Kme0)SAPATGGVKKP-NTPEGBiot peptide as substrate preincubated with [3H]SAM for 4 to 5 hrs followed by substrate addition and measured after 20 hrs by Topcount reader analysis
Target sequence in this assay (Q15910 whole entry): as above

[3] = target: T1, Histone-lysine N-methyltransferase EZH2; test: Binding affinity to N-terminal FLAG-tagged EZH2 in PRC2 complex (unknown origin) expressed in baculovirus infected Sf9 cells assessed as residence time at 21 nM pre-equilibrated with enzyme followed by incubation with bio-EZH2i and measured after 3 to 6 mins by TR-FRET assay
Target sequence in this assay (Q15910 whole entry, looked up): as the sequence (Q15910 whole entry) above

[4] = Clearance in iv dosed mouse; assay type: ADME, organism-based; details: in vivo
[5] = Toxicity in CB-17 SCID mouse xenografted with human KARPAS422 cells assessed as body weight loss at 50 mg/kg, sc bid for 16 days; assay type: organism-based, KARPAS-422; details: in vivo, 384 h
KARPAS-422 [6] = test: Antitumor activity against human KARPAS422 cells xenografted in CB-17 SCID mouse assessed as tumor regression at 50 mg/kg, sc bid for 16 days and measured at day 7 by caliper method; assay type: functional, organism-based
CYP3A4 = test: Upregulation of CYP3A4 mRNA expression in human Fa2N-4 cells at 10 uM after 3 days relative to control; assay type: ADME, cell-based; details: read-out: FC
KARPAS-422 [7] = test: Antitumor activity against human KARPAS422 cells xenografted in CB-17 SCID mouse assessed as tumor growth inhibition at 50 mg/kg, sc bid for 16 days and measured three times per week by caliper method relative to control; assay type: functional; details: KARPAS-422, sc, 384 h, read-out: TGI
[8] = Oral bioavailability in mouse; assay type: ADME, organism-based; details: in vivo
KARPAS-422 [9] = test: Antiproliferative activity against human KARPAS422 cells assessed as growth inhibition after 8 days by Cell Titer-Glo luminescent assay; assay type: functional; details: KARPAS-422, 192 h
[10] = Protein binding in human plasma; assay type: ADME, cell-free; details: read-out: PPB (converted)
[11] = Protein binding in mouse plasma; assay type: ADME, cell-free; details: read-out: PPB (converted)

SMILES	EC50 [1] [nM]	IC50 [2] [nM]	TIME [3] [h]	fold induction at 72 h, 10 µM (CYP3A4)	GI50 (KARPAS-422 [9]) [nM]	other results
CSc1cc(C)[nH]c(=O)c1CNC(=O)c1c(C)n([C@H](C)C2CCN(CC(C)(C)O)CC2)c2ccccc12	26	0.067	7.52			
CSc1cc(C)[nH]c(=O)c1CNC(=O)c1c(C)n([C@H](C)C2CCN(CC(F)(F)F)CC2)c2ccccc12	2.5	0.18	46.3	25	53	clearance [4]: 9.33 mL/min/kg; Activity [5]: Non-Toxic; Activity (KARPAS-422 [6]): Active; inhibition in vivo at 50 mg/kg (KARPAS-422 [7]): 77 to 88%; bioavailability [8]: 40%; fraction unbound [10]: 0.03; fraction unbound [11]: 0.002
Cc1cc(Cl)c(CNC(=O)c2c(C)n([C@H](C)C3CCN(CC(F)(F)F)CC3)c3ccccc23)c(=O)[nH]1	< 100	0.2 to 30				
CSc1cc(C)[nH]c(=O)c1CNC(=O)c1c(C)n([C@H](C)[C@H]2OC[C@H](N(C)C)CO2)c2ccccc12	2.4	0.16	40.9	3		
Cc1cc(C)c(CNC(=O)c2c(C)n([C@H](C)C3CCN(CC(F)(F)F)CC3)c3ccccc23)c(=O)[nH]1		0.2 to 30				
CSc1cc(C)[nH]c(=O)c1CNC(=O)c1c(C)n([C@H](C)[C@H]2CC[C@H](N3CC(OC4CC4)C3)CC2)c2ccccc12	3.5	0.072	289	17	13	
CSc1cc(C)[nH]c(=O)c1CNC(=O)c1c(C)n([C@H](C)C2CCN(C3COC3)CC2)c2ccccc12	5.1	0.12	42.5	6.4		
Cc1cc([S+](C)[O-])c(CNC(=O)c2c(C)n([C@H](C)C3CCN(CC(F)(F)F)CC3)c3ccccc23)c(=O)[nH]1 (some centres not stated)	> 304	19				
Cc1cc(Cl)[nH]c(=O)c1CNC(=O)c1c(C)n([C@H](C)C2CCN(CC(F)(F)F)CC2)c2ccccc12	> 1000	0.2 to 30				
COc1cc(C)c(CNC(=O)c2c(C)n([C@H](C)C3CCN(CC(F)(F)F)CC3)c3ccccc23)c(=O)[nH]1	> 1000	0.2 to 30				
CSc1cc(C)[nH]c(=O)c1CNC(=O)c1c(C)n([C@H](C)[C@H]2CC[C@H](N3CC(OC(F)(F)F)C3)CC2)c2ccccc12	1.8	0.14		41	32	
CSc1cc(C)[nH]c(=O)c1CNC(=O)c1c(C)n([C@H](C)[C@H]2CC[C@H](N3CC(OC(F)F)C3)CC2)c2ccccc12	0.7	0.1	211	32	12	
Cc1cc(SCc2ccccc2)c(CNC(=O)c2c(C)n([C@H](C)C3CCN(CC(F)(F)F)CC3)c3ccccc23)c(=O)[nH]1		3.8				
